Some test systems named below: 786-0 renal; HCT-116 colon; RXF 393 renal; OVCAR-4 ovarian; HOP-62 NSCLC; A549 NSCLC; EKVX NSCLC; TK-10 renal.
Holding throughout (test): DTP human tumour cell line panel, 48 h

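Step 1: Grow cells in 96-well plates. Step 2: Expose to compound for 48 hours at 5 concentrations. Step 3: Interpolate endpoints linearly; if unreached, use highest concentration. GI50: concentration for 50% inhibition of growth. TGI: concentration producing complete growth inhibition.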

For the compound `COc1ccc(-c2nnc(N3CCN(C(=O)CN4CCN(c5ccc(Cl)cc5)CC4)CC3)nc2-c2ccc(OC)cc2)cc1`, the GI50 (commonly the concentration that inhibits growth by half) is 17.5 µM with 786-0 renal; 5.99 µM in the assay on HCT-116 colon; 18.9 µM with RXF 393 renal; > 100 µM in the assay with OVCAR-4 ovarian; 26.2 µM in the assay with HOP-62 NSCLC; 27.4 µM with A549 NSCLC. Also, the GI50 was > 100 µM in the assay on EKVX NSCLC and 58.5 µM in the assay on TK-10 renal. In addition, the concentration for total growth inhibition (TGI) (usually the concentration giving total growth inhibition) with 786-0 renal was 69.8 µM; in the assay with HCT-116 colon it was > 100 µM; in the assay on RXF 393 renal, > 100 µM; in the assay on OVCAR-4 ovarian it was > 100 µM; in the assay with HOP-62 NSCLC, 81.1 µM; in the assay with A549 NSCLC, > 100 µM. In addition, the TGI in the assay on EKVX NSCLC and in the assay on TK-10 renal was > 100 µM each time.

Take `CC1SC(c2c(Cl)cccc2Cl)N(NC(=O)C(O)c2ccccc2)C1=O` (centres undefined): the GI50 is > 100 µM with 786-0 renal; 56 µM in the assay on HCT-116 colon; 93.2 µM with RXF 393 renal; > 100 µM with OVCAR-4 ovarian; 89.3 µM with HOP-62 NSCLC; 94 µM with A549 NSCLC. The GI50 in the assay on EKVX NSCLC and in the assay on TK-10 renal was > 100 µM each time. In addition, the concentration for total growth inhibition (TGI) with 786-0 renal, with HCT-116 colon, in the assay with RXF 393 renal, in the assay with OVCAR-4 ovarian, with HOP-62 NSCLC and in the assay on A549 NSCLC was > 100 µM each time. The concentration for total growth inhibition (TGI) in the assay on EKVX NSCLC and with TK-10 renal was > 100 µM throughout.

Regarding `CNC(=O)OC1C(O[C@H]2C[C@H]3[C@@H]4CC=C5C[C@@H](O)CC[C@]5(C)[C@H]4CC[C@]3(C)[C@H]2[C@H](C)C(=O)CCC(C)C)OCC(O)C1OC1OCC(O)C(O)C1OC(=O)c1ccc(OC)cc1` (some centres undefined), the GI50 is 0.00341 µM in the assay with 786-0 renal; 0.0129 µM with HCT-116 colon; < 0.00275 µM in the assay on RXF 393 renal; 0.291 µM in the assay on OVCAR-4 ovarian; 0.0225 µM in the assay on HOP-62 NSCLC; 0.0178 µM in the assay with A549 NSCLC. For the same compound, the 50% growth inhibitory concentration (GI50) is 0.0396 µM with EKVX NSCLC and 0.793 µM in the assay with TK-10 renal. Also, the total growth inhibition concentration (TGI) with 786-0 renal came to 0.652 µM; in the assay on HCT-116 colon, 3.11 µM; in the assay on RXF 393 renal, 0.0111 µM; in the assay with OVCAR-4 ovarian, 7.36 µM; with HOP-62 NSCLC, 2.85 µM; in the assay with A549 NSCLC, 4.96 µM. In addition, the concentration for total growth inhibition (TGI) in the assay with EKVX NSCLC was determined as 3.47 µM; in the assay with TK-10 renal, 7.69 µM.

As to `O=C(NNS(=O)(=O)c1ccc(F)cc1)c1cccnc1Nc1ccc(Cl)cc1Cl`, the GI50 was 23 µM in the assay on 786-0 renal; 30.3 µM with HCT-116 colon; 11.4 µM with RXF 393 renal; 38 µM in the assay on OVCAR-4 ovarian; 30.9 µM in the assay on HOP-62 NSCLC; 17.2 µM with A549 NSCLC. Moreover, the GI50 in the assay with EKVX NSCLC is 29.5 µM; in the assay on TK-10 renal it was 33.8 µM. The total growth inhibition concentration (TGI) in the assay on 786-0 renal is 53.6 µM; in the assay with HCT-116 colon it was > 100 µM; in the assay with RXF 393 renal, 27.6 µM; in the assay on OVCAR-4 ovarian, > 100 µM; with HOP-62 NSCLC it was 84.5 µM; in the assay on A549 NSCLC it was 41 µM. The TGI in the assay on EKVX NSCLC and in the assay with TK-10 renal was > 100 µM throughout.

In the case of `Cc1ccc(C2C3=C(N=c4s/c(=C/c5ccc(Br)cc5)c(=O)n42)c2ccc4ccccc4c2OCC3)cc1` (centres undefined), the GI50 with 786-0 renal, in the assay on HCT-116 colon, in the assay on RXF 393 renal, with OVCAR-4 ovarian, in the assay on HOP-62 NSCLC and with A549 NSCLC was > 100 µM each time. In addition, the GI50 in the assay with EKVX NSCLC and in the assay with TK-10 renal was > 100 µM throughout. The TGI with 786-0 renal, in the assay with HCT-116 colon, in the assay with RXF 393 renal, in the assay with OVCAR-4 ovarian, in the assay on HOP-62 NSCLC and in the assay with A549 NSCLC was > 100 µM in each case. Also, the total growth inhibition concentration (TGI) in the assay with EKVX NSCLC and in the assay with TK-10 renal was > 100 µM throughout.

Turning to `C(=C\c1nccc2c1[nH]c1ccccc12)/c1ccccc1`, the GI50 with 786-0 renal was 3.49 µM; in the assay on HCT-116 colon it was 2.71 µM; in the assay with RXF 393 renal, 2.06 µM; with OVCAR-4 ovarian it was 3.18 µM; in the assay on HOP-62 NSCLC it was 2.97 µM; with A549 NSCLC it was 4.09 µM. In addition, the GI50 is 1.72 µM in the assay on EKVX NSCLC and 6.58 µM in the assay with TK-10 renal. Moreover, the total growth inhibition concentration (TGI) in the assay on 786-0 renal is 10.7 µM; in the assay on HCT-116 colon, 10.7 µM; in the assay on RXF 393 renal it was 4.66 µM; in the assay on OVCAR-4 ovarian it was > 100 µM; with HOP-62 NSCLC it was 22.3 µM; in the assay on A549 NSCLC it was > 100 µM. Further, the figures for the TGI in the assay on EKVX NSCLC and in the assay with TK-10 renal were 59.6 µM and 25.5 µM, respectively.

In the case of `Oc1c(I)cc(-c2nc3ccccc3s2)cc1CN(Cc1ccccn1)Cc1ccccn1`, the GI50 with 786-0 renal is 0.347 µM; in the assay on HCT-116 colon, 0.494 µM; in the assay with RXF 393 renal, 1.08 µM; with OVCAR-4 ovarian, 0.231 µM; in the assay on HOP-62 NSCLC, 0.332 µM; in the assay with A549 NSCLC, 0.427 µM. The GI50 with EKVX NSCLC is 0.321 µM; in the assay with TK-10 renal it was 0.46 µM. Besides, the concentration for total growth inhibition (TGI) in the assay on 786-0 renal was 2.62 µM; with HCT-116 colon, 12.4 µM; in the assay with RXF 393 renal it was 5.61 µM; in the assay on OVCAR-4 ovarian it was 5.58 µM; with HOP-62 NSCLC, 68.3 µM; in the assay with A549 NSCLC, > 100 µM. Besides, the TGI with EKVX NSCLC and in the assay on TK-10 renal was > 100 µM throughout.

As to `O=C(Nc1cccc(O)c1)c1cccc(NC2=C(Cl)C(=O)N(Cc3ccccc3)C2=O)c1`, the GI50 with 786-0 renal was 15.2 µM; in the assay on HCT-116 colon it was 18.1 µM; in the assay on RXF 393 renal it was 14.8 µM; in the assay with OVCAR-4 ovarian, 19.2 µM; with HOP-62 NSCLC it was 19.2 µM; in the assay on A549 NSCLC it was 18.8 µM. For the same compound, the values for the GI50 in the assay with EKVX NSCLC and in the assay with TK-10 renal were 17.3 µM and 15 µM, respectively. Further, the TGI is 30.2 µM in the assay on 786-0 renal; 32 µM in the assay on HCT-116 colon; 42.3 µM in the assay with RXF 393 renal; 47.9 µM in the assay on OVCAR-4 ovarian; 33.6 µM in the assay with HOP-62 NSCLC; 48.3 µM in the assay with A549 NSCLC. Moreover, the values for the TGI in the assay with EKVX NSCLC and in the assay on TK-10 renal were 32.1 µM and 29.8 µM, respectively.

For the compound `NC(=S)N/N=C\c1nccc2c(N)cccc12`, the GI50 is 0.163 µM in the assay with 786-0 renal; 0.356 µM in the assay with HCT-116 colon; 0.248 µM in the assay on RXF 393 renal; 0.414 µM with OVCAR-4 ovarian; 0.352 µM with HOP-62 NSCLC; 0.484 µM with A549 NSCLC. The GI50 is 0.803 µM in the assay with EKVX NSCLC and 0.961 µM in the assay with TK-10 renal. Moreover, the total growth inhibition concentration (TGI) is 0.737 µM with 786-0 renal; > 46 µM in the assay with HCT-116 colon; 17.1 µM with RXF 393 renal; > 100 µM in the assay with OVCAR-4 ovarian; > 22 µM with HOP-62 NSCLC; > 27 µM in the assay on A549 NSCLC. Besides, the concentration for total growth inhibition (TGI) in the assay on EKVX NSCLC and in the assay with TK-10 renal was > 100 µM each time.
